Data taken from article PMC9120487, “Cryo-EM structures define ubiquinone-10 binding to mitochondrial complex I and conformational transitions accompanying Q-site occupancy” (Nature Communications, 2022).

Tests used:
[1] = target: T1, bovine mitochondrial complex I (CxI-ND) (Bos taurus, UniProt P03887+P03898+P17694+P42026); test: NADH:dQ oxidoreductase activity, […]-380 nm; assay type: biochemical; conditions: DDM-solubilised enzyme; 200 µM dQ, 200 µM NADH, 0.15% asolectin/CHAPS; pH 7.5, 32 °C; piericidin-sensitive rate
T1 construct: gene NDUFS2; native 45-subunit complex (14 core, 31 supernumerary); NDUFS2 residue 129 modelled as Arg, NDUFA10 residue 255 as Lys; human subunit nomenclature; with NADH dehydrogenase [ubiquinone] flavoprotein 1, mitochondrial; NADH dehydrogenase [ubiquinone] flavoprotein 2, mitochondrial; NADH-ubiquinone oxidoreductase 75 kDa subunit, mitochondrial; NADH dehydrogenase [ubiquinone] iron-sulfur protein 3, mitochondrial; NADH dehydrogenase [ubiquinone] iron-sulfur protein 8, mitochondrial; NADH-ubiquinone oxidoreductase chain 2; NADH-ubiquinone oxidoreductase chain 3; NADH-ubiquinone oxidoreductase chain 4; NADH-ubiquinone oxidoreductase chain 4L; NADH-ubiquinone oxidoreductase chain 5; NADH-ubiquinone oxidoreductase chain 6

[2] = target: T1, bovine mitochondrial complex I (CxI-ND); test: cryo-EM structure, […] Å; conditions: oxidised resting enzyme in nanodiscs, active state; Q-binding channel between NDUFS2, NDUFS7 and ND1; pH 7.5

| SMILES | NADH:dQ oxidoreductase activity, 340-380 nm [1] | cryo-EM structure, 2.84 Å [2] |
| --- | --- | --- |
| CCCCCCCCCCC1=C(C)C(=O)C(OC)=C(OC)C1=O [dQ, decylubiquinone] | piericidin-sensitive NADH:dQ oxidoreductase activity of the DDM-solubilised enzyme before reconstitution |  |
| COC1=C(OC)C(=O)C(C/C=C(\C)CC/C=C(\C)CC/C=C(\C)CC/C=C(\C)CC/C=C(\C)CC/C=C(\C)CC/C=C(\C)CC/C=C(\C)CC/C=C(\C)CCC=C(C)C)=C(C)C1=O [Q10, ubiquinone-10] |  | In active-Q10, the Q10 density occupies the entirety of the channel |
